#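 Compound exposure: 48 hours, 5 concentrations, 96-well plates. The concentration for 50% growth inhibition is given as GI50.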 The source made the active and inactive calls. Cut-off read from the data, not from the text of the source: active = GI50 up to about 1.1 µM and inactive = higher.
# Tests used:
# Experiment in all cases: NCI anticancer screen, dose series, 48 h
# [1] = test system: SN12C
# [2] = test system: HCC 2998
# [3] = test system: HT-29
# [4] = test system: NCI-H23
# [5] = test system: COLO 205
# [6] = test system: U-251
# [7] = test system: SNB-19
# [8] = test system: UO-31
# [9] = test system: SK-MEL-28
# [10] = test system: CAKI-1
# [11] = test system: TK-10
# [12] = test system: IGROV-1
# [13] = test system: DMS-273
# [14] = test system: HOP-18
# [15] = test system: SF-295
# [16] = test system: MOLT-4
# [17] = test system: OVCAR-3
# [18] = test system: DLD-1
# [19] = test system: SF-268
# [20] = test system: 786-0
# [21] = test system: OVCAR-4
# [22] = test system: EKVX
# [23] = test system: K562
# [24] = test system: A498
# [25] = test system: SK-OV-3
# [26] = test system: M14
# [27] = test system: UACC-62
# [28] = test system: SNB-75
# [29] = test system: KM-20L2
# [30] = test system: SF-539
# [31] = test system: A549
# [32] = test system: CCRF-CEM
# [33] = test system: ACHN
# [34] = test system: LOX IMVI
# [35] = test system: SK-MEL-5
# [36] = test system: HL-60
# [37] = test system: HOP-62
# [38] = test system: LXFL 529
# [39] = test system: OVCAR-8
# [40] = test system: XF498
# [41] = test system: HCT-15
# [42] = test system: HCT-116
# [43] = test system: M19-MEL
# [44] = test system: SNB-78
# [45] = test system: SW-620
# [46] = test system: NCI-H460
# [47] = test system: NCI/ADR-RES
# [48] = test system: UACC-257
# [49] = test system: NCI-H522
# [50] = test system: KM12
# [51] = test system: Malme-3M
# [52] = test system: DMS-114
# [53] = test system: OVCAR-5
# [54] = test system: SK-MEL-2
# [55] = test system: RXF 393
# [56] = test system: NCI-H226
# [57] = test system: MCF7
# [58] = test system: RPMI-8226
# [59] = test system: HOP-92
compound,measurement,setting,value
Cc1ccc(/C=C2\CCCC\C2=N\O)cc1,GI50,[1],47 µM (inactive)
same,GI50,[2],19.9 µM (inactive)
same,GI50,[3],51.8 µM (inactive)
same,GI50,[4],47.3 µM (inactive)
same,GI50,[5],81.5 µM (inactive)
same,GI50,[6],60.1 µM (inactive)
same,GI50,[7],53 µM (inactive)
same,GI50,[8],26.9 µM (inactive)
same,GI50,[9],> 100 µM (inactive)
same,GI50,[10],56.6 µM (inactive)
same,GI50,[11],> 100 µM (inactive)
same,GI50,[12],74.5 µM (inactive)
same,GI50,[13],56.8 µM (inactive)
same,GI50,[14],59.6 µM (inactive)
same,GI50,[15],74.3 µM (inactive)
same,GI50,[16],> 10 µM (inactive)
same,GI50,[17],> 100 µM (inactive)
same,GI50,[18],41.9 µM (inactive)
same,GI50,[19],51.2 µM (inactive)
same,GI50,[20],48.5 µM (inactive)
same,GI50,[21],38.8 µM (inactive)
same,GI50,[22],80.2 µM (inactive)
same,GI50,[23],41 µM (inactive)
same,GI50,[24],37.7 µM (inactive)
same,GI50,[25],> 100 µM (inactive)
same,GI50,[26],> 100 µM (inactive)
same,GI50,[27],> 100 µM (inactive)
same,GI50,[28],26.2 µM (inactive)
same,GI50,[29],75.9 µM (inactive)
same,GI50,[30],88.3 µM (inactive)
same,GI50,[31],71.8 µM (inactive)
same,GI50,[32],45.4 µM (inactive)
same,GI50,[33],37.8 µM (inactive)
same,GI50,[34],58.7 µM (inactive)
same,GI50,[35],35.1 µM (inactive)
same,GI50,[36],12.9 µM (inactive)
same,GI50,[37],> 100 µM (inactive)
same,GI50,[38],46.3 µM (inactive)
same,GI50,[39],59.3 µM (inactive)
same,GI50,[40],31.3 µM (inactive)
same,GI50,[41],44.6 µM
same,GI50,[42],45.9 µM (inactive)
same,GI50,[43],87.7 µM (inactive)
same,GI50,[44],30.3 µM (inactive)
same,GI50,[45],> 100 µM (inactive)
same,GI50,[46],54 µM (inactive)
O=C(CC1=NCCN1)c1ccccc1,GI50,[1],> 750 µM (inactive)
same,GI50,[47],> 750 µM (inactive)
same,GI50,[2],> 750 µM (inactive)
same,GI50,[3],> 750 µM (inactive)
same,GI50,[4],> 750 µM (inactive)
same,GI50,[5],> 750 µM (inactive)
same,GI50,[6],> 750 µM (inactive)
same,GI50,[7],> 750 µM (inactive)
same,GI50,[8],721 µM (inactive)
same,GI50,[9],> 750 µM (inactive)
same,GI50,[10],> 750 µM (inactive)
same,GI50,[48],> 750 µM (inactive)
same,GI50,[12],> 750 µM (inactive)
same,GI50,[13],> 750 µM (inactive)
same,GI50,[49],> 750 µM (inactive)
same,GI50,[14],> 649 µM (inactive)
same,GI50,[15],> 750 µM (inactive)
same,GI50,[50],> 750 µM (inactive)
same,GI50,[16],> 750 µM (inactive)
same,GI50,[17],> 750 µM (inactive)
same,GI50,[51],> 617 µM (inactive)
same,GI50,[18],> 750 µM (inactive)
same,GI50,[19],> 750 µM (inactive)
same,GI50,[52],> 750 µM (inactive)
same,GI50,[21],> 750 µM (inactive)
same,GI50,[22],> 750 µM (inactive)
same,GI50,[23],> 750 µM (inactive)
same,GI50,[24],62.8 µM (inactive)
same,GI50,[25],> 750 µM (inactive)
same,GI50,[53],> 750 µM (inactive)
same,GI50,[54],> 750 µM (inactive)
same,GI50,[27],> 750 µM (inactive)
same,GI50,[28],> 735 µM (inactive)
same,GI50,[29],> 750 µM (inactive)
same,GI50,[55],> 750 µM (inactive)
same,GI50,[30],> 750 µM (inactive)
same,GI50,[31],> 213 µM (inactive)
same,GI50,[32],> 511 µM (inactive)
same,GI50,[56],> 536 µM (inactive)
same,GI50,[34],> 750 µM (inactive)
same,GI50,[57],> 750 µM (inactive)
same,GI50,[35],> 750 µM (inactive)
same,GI50,[36],455 µM (inactive)
same,GI50,[37],> 605 µM (inactive)
same,GI50,[58],> 750 µM (inactive)
same,GI50,[39],> 750 µM (inactive)
same,GI50,[40],> 750 µM (inactive)
same,GI50,[59],> 319 µM (inactive)
same,GI50,[41],> 750 µM
same,GI50,[42],> 750 µM (inactive)
same,GI50,[43],> 750 µM (inactive)
same,GI50,[44],> 750 µM (inactive)
same,GI50,[45],> 750 µM (inactive)
same,GI50,[46],> 511 µM (inactive)

# Source: ChEMBL document CHEMBL1201862, “PubChem BioAssay data set” (2004)
